From PubChem BioAssay (NCI) come the findings set out here.

Some test systems named below: UACC-62 melanoma; NCI/ADR-RES ovarian; HL-60(TB) leukemia; MCF7 breast; HCT-15 colon; MOLT-4 leukemia; UO-31 renal.
Common to all, as to test: NCI tumour cell line growth inhibition, 48 h

The structures appear in SMILES notation.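 These data come from cells grown in 96-well plates and exposed to compound for 48 hours at five concentrations. TGI: total growth inhibition.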 Where only a bound is given, the exact number is not on record here.

Take `C=CCN1C(=O)C[C@H](Cc2ccccc2)NC(=O)C[C@H](Cc2ccccc2)N(CC=C)C(=O)C[C@H](Cc2ccccc2)NC(=O)C[C@@H]1Cc1ccccc1`: the TGI with UACC-62 melanoma is over 100 µM; in the experiment with NCI/ADR-RES ovarian, over 100 µM; with HL-60(TB) leukemia, 9.37 µM; in the experiment with MCF7 breast it was over 100 µM; in the experiment with HCT-15 colon it was over 100 µM; with MOLT-4 leukemia, 6.91 µM. The TGI in the experiment with UO-31 renal was over 100 µM.

Consider `CNCC(SC)c1ccc(O)c(O)c1` (stereo not given), for which the TGI was over 100 µM in the experiment on UACC-62 melanoma; over 100 µM in the experiment with NCI/ADR-RES ovarian; 37.5 µM in the experiment on HL-60(TB) leukemia; 87.4 µM in the experiment on MCF7 breast; over 100 µM in the experiment with HCT-15 colon; 47.2 µM in the experiment with MOLT-4 leukemia. Moreover, the TGI in the experiment on UO-31 renal was over 100 µM.

Consider `O=C(Oc1cncc(Cl)c1)c1cc2ccccc2sc1=O`, for which the TGI with UACC-62 melanoma is over 100 µM; with NCI/ADR-RES ovarian it was over 100 µM; with HL-60(TB) leukemia, over 100 µM; with MCF7 breast, over 100 µM; in the experiment with HCT-15 colon, over 100 µM; in the experiment on MOLT-4 leukemia, 90 µM. Besides, the TGI with UO-31 renal is over 100 µM.

For the molecule `COc1ccc(C2C3=C(COC3=O)Oc3cc4c(cc32)OCO4)cc1OC` (stereo not given), the TGI in the experiment with UACC-62 melanoma was over 100 µM; with NCI/ADR-RES ovarian, 7.7 µM; in the experiment on HL-60(TB) leukemia, 0.804 µM; with MCF7 breast, over 100 µM; in the experiment with HCT-15 colon it was over 100 µM; in the experiment with MOLT-4 leukemia, over 29.9 µM. In the experiment with UO-31 renal, this molecule displayed a TGI of over 100 µM.

Take `CC(=O)N1CCOC12N=NC(C)(C)O2` (stereo not given): the TGI in the experiment on UACC-62 melanoma, with NCI/ADR-RES ovarian, with MCF7 breast, in the experiment with HCT-15 colon, in the experiment on MOLT-4 leukemia and in the experiment with UO-31 renal was over 100 µM in each case.

Take `Cc1ccc(N=Nc2c(O)ccc3ccccc23)c(C)c1`: the TGI in the experiment with UACC-62 melanoma, with NCI/ADR-RES ovarian, with HCT-15 colon, in the experiment with MOLT-4 leukemia and in the experiment on UO-31 renal was over 100 µM in each case.

Turning to `C/C(CC(O)(C(F)(F)F)C(F)(F)F)=N\O`, the TGI in the experiment with UACC-62 melanoma, in the experiment on NCI/ADR-RES ovarian, in the experiment on HL-60(TB) leukemia, in the experiment on MCF7 breast, in the experiment with HCT-15 colon and in the experiment with MOLT-4 leukemia was over 10 µM in each case.

For the molecule `Cc1noc(-c2ccc(C(=O)O)[nH]2)c1Br`, the TGI with UACC-62 melanoma, in the experiment on NCI/ADR-RES ovarian, in the experiment with MCF7 breast, with HCT-15 colon, with MOLT-4 leukemia and with UO-31 renal was over 100 µM throughout.

Turning to `COc1ccc(NCn2nc(CCCCCCCCc3nn(CNc4ccc(OC)cc4)c(=S)o3)oc2=S)cc1`, the TGI in the experiment on UACC-62 melanoma, with NCI/ADR-RES ovarian, in the experiment with MCF7 breast, in the experiment on HCT-15 colon, in the experiment with MOLT-4 leukemia and with UO-31 renal was over 100 µM in each case.

For the molecule `CCOC(=O)/C=C(/C(=O)OCC)n1cc(C)c(=O)n(Cc2cn(CCCCOC(C)=O)nn2)c1=O`, the TGI is 30.5 µM in the experiment with UACC-62 melanoma; 65.6 µM in the experiment on NCI/ADR-RES ovarian; 42.2 µM in the experiment on MCF7 breast; over 100 µM in the experiment on HCT-15 colon; 24.9 µM in the experiment with MOLT-4 leukemia; 28.3 µM in the experiment on UO-31 renal.

With `CSCCC(NC(=O)C(Cc1c[nH]c2ccccc12)NC(=O)CCNC(=O)OC(C)(C)C)C(=O)NC(CC(=O)O)C(=O)NC(Cc1ccccc1)C(N)=O` (stereo not given), the TGI with UACC-62 melanoma, in the experiment on NCI/ADR-RES ovarian, in the experiment with HL-60(TB) leukemia, with MCF7 breast and with MOLT-4 leukemia was over 50 µM in each case.

Consider `CCOC(=O)c1c(SC(=O)c2ccc(Cl)cc2)n(-c2ccccc2)c(=S)n(-c2ccccc2)c1=O`, for which the TGI in the experiment on UACC-62 melanoma, with NCI/ADR-RES ovarian, with HL-60(TB) leukemia, in the experiment with MCF7 breast, in the experiment with HCT-15 colon and with MOLT-4 leukemia was over 100 µM throughout.

For `Oc1c(NCn2nc(CCCCCCCCc3nn(CNc4ccc5ccccc5c4O)c(=S)o3)oc2=S)ccc2ccccc12`, the TGI in the experiment on UACC-62 melanoma, in the experiment on NCI/ADR-RES ovarian, with MCF7 breast, with HCT-15 colon, with MOLT-4 leukemia and in the experiment on UO-31 renal was over 100 µM each time.

For the molecule `CC1(C)CC(=O)C2=C(C1)NC(=S)C(C#N)C2c1ccccc1` (stereo not given), the TGI in the experiment on UACC-62 melanoma, in the experiment with NCI/ADR-RES ovarian, with HL-60(TB) leukemia, in the experiment on MCF7 breast, with HCT-15 colon and in the experiment with UO-31 renal was over 100 µM each time.

Turning to `CN1CCC(O)(OC(=O)C(c2ccccc2)C2(O)CCCC2)CC1` (stereo not given), the TGI in the experiment on UACC-62 melanoma, in the experiment on NCI/ADR-RES ovarian, in the experiment on HL-60(TB) leukemia, in the experiment with MCF7 breast, in the experiment with HCT-15 colon and with MOLT-4 leukemia was over 100 µM throughout.

`Cc1oc(N)c(S(=O)(=O)/C(C#N)=C/c2ccccc2[N+](=O)[O-])c1C`: the TGI was 46.9 µM in the experiment on UACC-62 melanoma; over 100 µM with NCI/ADR-RES ovarian; over 100 µM with MCF7 breast; over 100 µM with HCT-15 colon; 62.5 µM with MOLT-4 leukemia; 30.6 µM with UO-31 renal.

With `O=C(CCC(NC(=O)OCc1ccccc1)C(=O)OCc1ccccc1)Nc1cccc(OCc2ccccc2)c1` (stereo not given), the TGI was over 100 µM with UACC-62 melanoma; over 100 µM in the experiment with NCI/ADR-RES ovarian; 37.6 µM in the experiment on HL-60(TB) leukemia; 41.3 µM in the experiment with MCF7 breast; 38.8 µM in the experiment on HCT-15 colon; over 100 µM in the experiment with MOLT-4 leukemia.

Consider `CCC1OC2(C)CC(C#N)(C#N)C1(C#N)C(=N)O2` (stereo not given), for which the TGI in the experiment on UACC-62 melanoma, with HL-60(TB) leukemia, in the experiment on MCF7 breast, in the experiment with MOLT-4 leukemia and with UO-31 renal was over 100 µM throughout.

With `CCOC(=O)C1=C(N2CCCC2)C(=O)C(C(=O)OCC)C1` (stereo not given), the TGI in the experiment with NCI/ADR-RES ovarian, in the experiment with MCF7 breast, with HCT-15 colon, in the experiment with MOLT-4 leukemia and in the experiment on UO-31 renal was over 100 µM throughout.

For the molecule `C/C(=N\Nc1nc2cc(F)ccc2s1)c1ccccn1`, the TGI was 1.46 µM with UACC-62 melanoma; 0.12 µM in the experiment on NCI/ADR-RES ovarian; over 100 µM in the experiment with MCF7 breast; 2.12 µM in the experiment with HCT-15 colon; over 100 µM in the experiment with MOLT-4 leukemia; 0.314 µM with UO-31 renal.
